“Also recorded” adds a separate entry of the source. Read-outs that look alike come from different tables or passages of the source. No end group written: not given here. *: point of attachment. Myristoyl = CCCCCCCCCCCCCC(=O)*
Tests used:
[1] = test system: human platelets; assay type: cell-based; conditions: for integrin outside-in signaling (early phase): human platelets on fibrinogen, 250 μM peptide; for platelet spreading on fibrinogen: human platelets, immobilized fibrinogen
Experimental: The clots were photographed at various time points. […] Statistical significance was determined using t-test.
Studies using human platelets were approved by institutional review board of University of Illinois at Chicago.
Coverslides were pre-coated with 100 μg/ml fibrinogen and blocked with 5% BSA in PBS. 300 μl αIIbβ3-expressing CHO cells (expressing WT or mutant integrins; 1×10^5/ml) or platelets (1×10^7/ml) suspended in Tyrode's buffer were added to coverslides and incubated at 37° C. for various lengths of time. Cells were fixed with 4% paraformaldehyde (PFA) for 10 minutes and permeabilized with 0.1% Triton X-100 in PBS for 2 minutes. After blocking with 5% BSA for 10 minutes, coverslides were incubated with 0.2 μg/ml mAb 15, or Alexa Fluor-546 conjugated phalloidin. For mouse platelets re-express wild type β3 or the AAA mutant of β3, β3 was immuno-stained with the anti-β3 monoclonal antibody MAb 15 and Alexa Fluor-546 conjugated phalloidin. The slides were scanned with a Zeiss LSM5 10 META confocal microscope as previously described^11

[2] = test system: RhoA; experiment: RhoA activity assay (GST-RBD pull down) in platelets; assay type: cell-based, human; conditions: human platelets adherent to fibrinogen
Experimental: Platelets in modified Tyrode's buffer or adherent on immobilized fibrinogen were lysed quickly in 0.8 ml lysis buffer (50 mM Tris, pH 7.4, 10 mM MgCl2, 500 mM NaCl, 1% Triton X-100, 0.1% SDS, 0.5% deoxycholate, 10 μg/ml each of aprotinin and leupeptin, 1 mM phenylmethylsulfonyl fluoride, and 200 μM sodium vanadate). Lysates were cleared by centrifugation at 18,000 g for 2 minutes at 4° C., and the supernatant was incubated for 1 hour with 30 μg purified GST-Rhotekin RhoA-binding domain fusion protein (GST-RBD) bound to glutathione-Sepharose beads (S10). Samples were washed three times using washing buffer (50 mM Tris, pH 7.4, 10 mM MgCl2, 150 mM NaCl, 1% Triton X-100) and then immunoblotted with an anti-RhoA monoclonal antibody. Cell lysates were also immunoblotted with anti-RhoA as loading control.

[3] = test system: c-Src; conditions: human platelets adherent to fibrinogen
Experimental: (FIG. 3A) Washed human platelets pre-treated with DMSO, mSRI, or scrambled control peptide were allowed to adhere to fibrinogen and then solubilized at indicated time points. Proteins from lysates were immunoblotted with antibodies to c-Src phosphorylated at Tyr^416, c-Src, or RhoA. GTP-bound RhoA was measured by association with GST-RBD beads (25). See FIG. S4 for quantitative data. (FIG. 3B) Spreading of platelets treated with 0.1% DMSO, scrambled control peptide, or mSRI, in the absence or presence of C3 toxin, Y27632, or 0.01 U/ml thrombin. Platelets were stained with Alexa Fluor 546-conjugated phalloidin.
(FIG. 13A) Platelets were treated with 500 μM control peptide, mP13, mP7, or mP5 peptides, then immunoprecipitated with anti-Gα13 antibody or equal amount of control rabbit IgG. Lysates and immunoprecipitates were immunoblotted with anti-Gα13 or anti-β3 (MAb15) antibody. (FIG. 13B) Human platelets treated with DMSO, Myr-Scrambled peptide or mP5 peptide were allowed to adhere to immobilized fibrinogen, solubilized and analyzed for RhoA activation and c-Src Tyr^416 phosphorylation. (FIG. 13C) Confocal microscopy images of platelets treated with DMSO, Myristoylated Scrambled peptides, and mP5 peptide treated platelets adherent on fibrinogen for 30 minutes, without or with Rho kinase inhibitor Y27632. Merged […] (green) fluorescence and Alexa Fluor 546-conjugated phalloidin (red) fluorescence. (FIG. 13D) Flow cytometry analysis of PAR4AP (50 μM)-induced Oregon-green labelled fibrinogen binding to human platelets pre-treated with DMSO, 250 μM Myr-Scrambled peptide or 250 μM mP5 peptide. (FIG. 13E) Platelets were preincubated with mP5 or scrambled control peptides and then stimulated with thrombin in a platelet aggregometer at 37° C. Platelet aggregation traces were recorded.
Western blot bands were scanned, and analyzed for uncalibrated optical density using NIH Image J software. Student t-test was used to determine statistical significance.

Substance	integrin outside-in signaling (early phase) [1]	platelet spreading on fibrinogen [1]	c-Src-dependent transient RhoA inhibition [2]	integrin-dependent phosphorylation of c-Src Tyr416 (c-Src activation) [3]	platelet spreading on fibrinogen ([1]; listed as Myr-P5)	RhoA activation (RhoA activity) [2]	integrin-dependent phosphorylation of c-Src Tyr416 (c-Src activation) ([3]; listed as Myr-P5)	thrombin-promoted platelet spreading ([1]; 0.01 U/ml thrombin)
Myristoyl-KFEEERARAKWDT [mP13]	inhibited	abolished	inhibited	inhibited	–	–	–	–
Myr-EEERA [mP5]	selectively inhibited	abolished; also recorded: inhibited	inhibited	inhibited	inhibited	increased	decreased	–
Myristoyl-KFEEERA [mP7]	–	abolished	inhibited	inhibited	–	–	–	–
Myristoyl-LLARRPTKGIHEY [mSRI]	–	inhibited	–	inhibited	–	accelerated	–	abolished

Source: US10738080B2, “Inhibitors of beta integrin-G protein alpha subunit binding interactions” (priority 2010, dated 2020)
